US9006228B2 (Merck Sharp & Dohme Corp., priority 2011, dated 2015)

Target: T1, human GPR119 (Homo sapiens, UniProt Q8TDV5)
T1 sequence (Q8TDV5 1-308 limits assumed): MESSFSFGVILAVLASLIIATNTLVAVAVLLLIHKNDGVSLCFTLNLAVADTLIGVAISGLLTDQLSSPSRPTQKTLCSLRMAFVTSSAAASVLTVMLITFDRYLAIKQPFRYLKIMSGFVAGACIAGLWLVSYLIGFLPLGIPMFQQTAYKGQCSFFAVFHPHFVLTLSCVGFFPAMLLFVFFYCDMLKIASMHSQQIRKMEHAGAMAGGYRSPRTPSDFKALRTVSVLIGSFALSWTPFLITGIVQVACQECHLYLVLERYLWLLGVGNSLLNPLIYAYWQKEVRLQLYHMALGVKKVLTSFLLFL
Experiment: Measurement of GPR119 signaling (cAMP assay; LANCE kit or HTRF) in HEK293 cells stably transfected with human GPR119
Assay type: cell-based
Details: agonist-stimulated cAMP in HEK293 cells expressing human GPR119
Outline: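 LANCE method: cAMP detected with Eu-chelate/biotin-cAMP tracer, 3 h, read at 665 nm, converted via cAMP standards; basal from DMSO, maximum from internal agonist, 4-parameter fit.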

Row | SMILES | EC50 [nM]
1 | CCc1cnc(N2CCC([C@H]3C[C@H]3COCc3ccc(-n4cnnn4)cc3)CC2)nc1 [Example 61, 5-ethyl-2-{4-[(1R,2R)-2-({[4-(1H-tetrazol-1-yl)benzyl]oxy}methyl)cyclopropyl]piperidin-1-yl}pyrimidine] | 0.07
2 | CC(C)c1noc(N2CCC([C@H]3C[C@H]3COCc3ccc(-n4cnnn4)cc3F)CC2)n1 [Example 134, 5-(4-((1R,2R)-2-((2-fluoro-4-(1H-tetrazol-1-yl)benzyloxy)methyl)cyclopropyl)piperidin-1-yl)-3-isopropyl-1,2,4-oxadiazole] | 1.7
3 | CCc1cnc(N2CCC([C@H]3C[C@H]3COCc3ccc(CCO)cc3)CC2)nc1 [Example 60, 2-{4-[({(1R,2R)-2-[1-(5-ethylpyrimidin-2-yl)piperidin-4-yl]cyclopropyl}methoxy)methyl]phenyl}ethanol] | 2.5
4 | CCc1cnc(N2CCC([C@H]3C[C@H]3COCc3ccc(-c4cncnc4)cc3F)CC2)nc1 [Example 108, 5-{4-[({(1R,2R)-2-[1-(5-ethylpyrimidin-2-yl)piperidin-4-yl]cyclopropyl}methoxy)methyl]-3-fluorophenyl}pyrimidine] | 1.1
5 | COCc1cnc(N2CCC([C@H]3C[C@H]3COCc3ccc(CC(=O)N4CCOCC4)cc3F)CC2)nc1 [Example 146, 2-(3-fluoro-4-((((1R,2R)-2-(1-(5-(methoxymethyl)pyrimidin-2-yl)piperidin-4-yl)cyclopropyl)methoxy)methyl)phenyl)-1-morpholinoethanone] | 3.23
6 | COC(C)c1cnc(N2CCC([C@H]3C[C@H]3COCc3ccc(S(C)(=O)=O)c(F)c3)CC2)nc1 (single isomer, unassigned) [Example 131] | 1.03
7 | CC1(OC(=O)N2CCC([C@H]3C[C@H]3COCc3cc(F)c(S(C)(=O)=O)c(F)c3)CC2)CC1 [Example 49, 1-methylcyclopropyl 4-[(1R,2R)-2-({[3,5-difluoro-4-(methylsulfonyl)benzyl]oxy}methyl)cyclopropyl] piperidine-1-carboxylate] | 11.7
8 | CCCc1cnc(N2CCC([C@H]3C[C@H]3COCc3ccc(S(C)(=O)=O)cc3)CC2)nc1 [Example 22, 2-{4-[(1R,2R)-2-({[4-(methylsulfonyl)benzyl]oxy}methyl)cyclopropyl]piperidin-1-yl}-5-propylpyrimidine] | 0.3
9 | CCc1cnc(N2CCC([C@H]3C[C@H]3COCc3ccc(-c4cncnc4)c(F)c3)CC2)nc1 [Example 113, 5-{4-[({(1R,2R)-2-[1-(5-ethylpyrimidin-2-yl)piperidin-4-yl]cyclopropyl}methoxy)methyl]-2-fluorophenyl}pyrimidine] | 2
10 | CCc1cnc(N2CCC([C@H]3C[C@H]3COCc3ccc(-c4ccncn4)c(F)c3)CC2)nc1 [Example 112, 4-{4-[({(1R,2R)-2-[1-(5-ethylpyrimidin-2-yl)piperidin-4-yl]cyclopropyl}methoxy)methyl]-2-fluorophenyl}pyrimidine] | 3
11 | CC(C)c1noc(N2CCC([C@H]3C[C@H]3COCc3ccc(S(=O)(=O)C4CC4)cc3)CC2)n1 [Example 25] | 18
12 | CCS(=O)(=O)c1ccc(COC[C@@H]2C[C@@H]2C2CCN(c3nc(C4CC4)no3)CC2)cc1F [Example 39, 1-(3-cyclopropyl-1,2,4-oxadiazol-5-yl)-4-[(1R,2R)-2-({[3-fluoro-4-(ethylsulfonyl)benzyl]oxy}methyl)cyclopropyl]piperidine] | 0.6
13 | O=S(=O)(CCO)c1ccc(COC[C@@H]2C[C@@H]2C2CCN(c3ncc(Br)cn3)CC2)c(F)c1 [Example 81] | 1.7
14 | CC(=O)CSc1ccc(COC[C@@H]2C[C@@H]2C2CCN(C(=O)OC(C)(C)C)CC2)cc1 [Example 91] | 14.9
15 | CS(=O)(=O)c1ccc(COC[C@@H]2C[C@@H]2C2CCN(C(=O)OCC3CC3)CC2)cc1 [Example 13, cyclopropylmethyl 4-[(1R,2R)-2-({[4-(methylsulfonyl)benzyl]oxy}methyl)cyclopropyl]piperidine-1-carboxylate] | 3.2
16 | COCc1cnc(N2CCC([C@H]3C[C@H]3COCc3cc(F)c(S(C)(=O)=O)c(F)c3)CC2)nc1 [Example 128, 2-(4-((1R,2R)-2-(((3,5-difluoro-4-(methylsulfonyl)benzyl)oxy)methyl)cyclopropyl)piperidin-1-yl)-5-(methoxymethyl)pyrimidine] | 4.5
17 | CC(C)COC(=O)N1CCC([C@H]2C[C@H]2COCc2ccc(S(C)(=O)=O)cc2)CC1 [Example 10, isobutyl 4-[(1R,2R)-2-({[4-(methylsulfonyl)benzyl]oxy}methyl)cyclopropyl]piperidine-1-carboxylate] | 8.2
18 | O=S(=O)(CCO)c1ccc(COC[C@@H]2C[C@@H]2C2CCN(c3ncc(C4CC4)cn3)CC2)nc1 [Example 90, 2-({6-[({(1R,2R)-2-[1-(5-cyclopropylpyrimidin-2-yl)piperidin-4-yl]cyclopropyl}methoxy)methyl]pyridin-3-yl}sulfonyl)ethanol] | 23

Other lines, results leading:

Row | EC50 [nM] | SMILES
19 | 850 | CCc1cnc(N2CCC([C@H]3C[C@H]3[C@H](COC)OCc3ccc(S(C)(=O)=O)cc3)CC2)nc1 [Example 65]
20 | 0.1 | CCS(=O)(=O)c1ccc(COC[C@@H]2C[C@@H]2C2CCN(C(=O)OC(C)(C)C)CC2)cc1F [Example 34, tert-butyl 4-[(1R,2R)-2-({[4-(ethylsulfonyl)-3-fluorobenzyl]oxy}methyl)cyclopropyl]piperidine-1-carboxylate]
21 | 13.6 | CS(=O)(=O)c1ccc(COC[C@@H]2C[C@@H]2C2CCN(c3ncc(C=O)cn3)CC2)c(F)c1 [Example 71, 2-{4-[(1R,2R)-2-({[2-fluoro-4-(methylsulfonyl)benzyl]oxy}methyl)cyclopropyl]piperidin-1-yl} pyrimidine-5-carbaldehyde]
22 | 11.4 | COCc1noc(N2CCC([C@H]3C[C@H]3COCc3ccc(CC(=O)N4CCC4)c(F)c3)CC2)n1 [Example 144, 1-(azetidin-1-yl)-2-(2-fluoro-4-((((1R,2R)-2-(1-(3-(methoxymethyl)-1,2,4-oxadiazol-5-yl)piperidin-4-yl)cyclopropyl)methoxy)methyl)phenyl)ethanone]
23 | 1.1 | CCc1cnc(N2CCC([C@H]3C[C@H]3COCc3ccc(-c4cccnn4)cc3)CC2)nc1 [Example 122]
24 | 21.9 | CC(O)CS(=O)(=O)c1ccc(COC[C@@H]2C[C@@H]2C2CCN(c3ncc(F)cn3)CC2)c(F)c1 (stereo partly drawn) [Example 96, 1-({4-[({(1R,2R)-2-[1-(5-fluoropyrimidin-2-yl)piperidin-4-yl]cyclopropyl}methoxy)methyl]-3-fluorophenyl}sulfonyl)propan-2-ol]
25 | 21 | CCc1cnc(N2CCC([C@H]3C[C@H]3COCc3ccc(S(=O)(=O)CCO)cc3F)CC2)nc1 [Example 83]
26 | 0.72 | COC(C)c1cnc(N2CCC([C@H]3C[C@H]3COCc3ccc(S(C)(=O)=O)c(F)c3)CC2)nc1 (single isomer, unassigned) [Example 130]
27 | 0.4 | CCc1cnc(N2CCC([C@H]3C[C@H]3COCc3cc(F)c(S(C)(=O)=O)c(F)c3)CC2)nc1 [Example 46]
28 | 4 | CCc1cnc(N2CCC([C@H]3C[C@H]3COCc3ccc(-c4cnc(C)s4)cc3F)CC2)nc1 [Example 111, 5-ethyl-2-{4-[(1R,2R)-2-({[2-fluoro-4-(2-methyl-1,3-thiazol-5-yl)benzyl]oxy}methyl)cyclopropyl]piperidin-1-yl}pyrimidine]
29 | 0.4 | CS(=O)(=O)c1ccc(COC[C@@H]2C[C@@H]2C2CCN(c3ncc(Cl)cn3)CC2)cc1F [Example 41, 5-chloro-2-{4-[(1R,2R)-2-({[3-fluoro-4-(methylsulfonyl)benzyl]oxy}methyl)cyclopropyl]piperidin-1-yl}pyrimidine]
30 | 6.3 | CC(C)c1noc(N2CCC([C@H]3C[C@H]3COCc3ccc(CC(=O)N4CC(O)C4)c(F)c3)CC2)n1 [Example 143, 2-(2-fluoro-4-((((1R,2R)-2-(1-(3-isopropyl-1,2,4-oxadiazol-5-yl)piperidin-4-yl)cyclopropyl)methoxy)methyl)phenyl)-1-(3-hydroxyazetidin-1-yl)ethanone]
31 | 5.9 | CCc1cnc(N2CCC([C@H]3C[C@H]3COCc3ccc(-c4cnc(N)nc4)c(F)c3)CC2)nc1 [Example 118, 5-{4-[({(1R,2R)-2-[1-(5-ethylpyrimidin-2-yl)piperidin-4-yl]cyclopropyl}methoxy)methyl]-2-fluorophenyl}pyrimidin-2-amine]
32 | 4.7 | CC1(OC(=O)N2CCC([C@H]3C[C@H]3COCc3ccc(S(C)(=O)=O)c(F)c3)CC2)CC1 [Example 43, 1-methylcyclopropyl 4-[(1R,2R)-2-({[3-fluoro-4-(methylsulfonyl)benzyl]oxy}methyl)cyclopropyl] piperidine-1-carboxylate]
33 | 9.5 | CC(O)CS(=O)(=O)c1ccc(COC[C@@H]2C[C@@H]2C2CCN(C(=O)OC(C)(C)C)CC2)cc1 (stereo partly shown) [Example 94]
34 | 2.3 | CCS(=O)(=O)c1ccc(COC[C@@H]2C[C@@H]2C2CCN(c3nc(C4CC4)no3)CC2)cc1 [Example 29, 1-(3-cyclopropyl-1,2,4-oxadiazol-5-yl)-4-[(1R,2R)-2-({[4-(ethylsulfonyl)benzyl]oxy}methyl)cyclopropyl]piperidine]
